Results reported in ChEMBL document CHEMBL4616706 (ACS Med Chem Lett, 2020).
pIC50: −log10 of the molar value. ≈ marks a conversion by molar mass, not a printed value.

Tests used:
[1] = target: Gamma-secretase; experiment: Modulation of gamma secretase in human H4 cells overexpressing human APP695 harboring K595N/M596L Swedish double mutant assessed as reduction in total amyloid beta (1 to 42 residues) production measured after 24 hrs by AlphaLISA assay; format: cell-based
[2] = Clearance in human hepatocytes assessed per million cells; format: ADME, cell-based, Hepatocyte; settings: read-out: CLH
[3] = Solubility of compound by LYSA assay; format: physicochemical
[4] = target: P-gp (ABCB1) (Homo sapiens, UniProt P08183); experiment: Substrate activity at human P-gp assessed as efflux ratio; format: ADME; settings: not told
[5] = target: Voltage-gated inwardly rectifying potassium channel KCNH2 (Homo sapiens, UniProt Q12809); experiment: (§1) Inhibition of human ERG
[6] = target: hERG (KCNH2) (Homo sapiens, UniProt Q12809); experiment: as §1; settings: human
[7] = target: Gamma-secretase; experiment: Modulation of gamma secretase in human H4 cells overexpressing human APP695 harboring K595N/M596L Swedish double mutant assessed as reduction in free amyloid beta (1 to 42 residues) production measured after 24 hrs by AlphaLISA assay; format: cell-based
[8] = Terminal half life in C57BL/6J mouse at 1 mg/kg, iv administered as single dose; format: ADME, organism-based; settings: in vivo, read-out: beta t1/2 (converted)
[9] = Distribution coefficient, logD of compound; format: physicochemical; settings: octanol/water
[10] = Genotoxicity in Salmonella typhimurium by Ames test; format: toxicity; settings: salmonella enterica subsp. enterica serovar typhimurium
[11] = Unbound fraction in rat plasma; format: ADME, cell-free
[12] = Modulation of mouse gamma secretase in N2A cells assessed as reduction in total amyloid beta (1 to 42 residues) production; format: cell-based
[13] = target: Gamma-secretase; experiment: Modulation of human gamma secretase expressed in HEK293 cells assessed as reduction in total amyloid beta (1 to 42 residues) production; format: cell-based
[14] = Clearance in C57BL/6J mouse at 1 mg/kg, iv administered as single dose; format: ADME, organism-based; settings: in vivo
[15] = Unbound fraction in mouse plasma; format: ADME, cell-free
[16] = system: Mus musculus; experiment: In vivo modulation of gamma secretase in APP Swedish double transgenic mouse assessed as reduction in free amyloid beta (1 to 42 residues) production measured after 4 hrs by AlphaLISA assay; format: functional, organism-based
[17] = Clearance in mouse hepatocytes assessed per million cells; format: ADME, cell-based, Hepatocyte; settings: read-out: CLH
[18] = Unbound fraction in human plasma; format: ADME, cell-free
[19] = Modulation of mouse gamma secretase in N2A cells assessed as reduction in free amyloid beta (1 to 42 residues) production; format: cell-based
[20] = Glutathione reactivity of compound; format: physicochemical
[21] = Volume of distribution at steady state in C57BL/6J mouse at 1 mg/kg, iv administered as single dose; format: ADME, organism-based; settings: in vivo, read-out: Vdss
[22] = target: Gamma-secretase; experiment: Modulation of human gamma secretase expressed in HEK293 cells assessed as reduction in free amyloid beta (1 to 42 residues) production; format: cell-based
[23] = system: P-gp; experiment: Substrate activity at mouse P-gp assessed as efflux ratio; format: ADME; settings: not told
[24] = Oral bioavailability in C57BL/6J mouse at 3 mg/kg administered as single dose; format: ADME, organism-based; settings: in vivo
[25] = Clearance in rat hepatocytes assessed per million cells; format: ADME, cell-based, Hepatocyte; settings: read-out: CLH
[26] = Volume of distribution at steady state in Wistar rat at 1 mg/kg, iv administered as single dose; format: ADME, organism-based; settings: in vivo, read-out: Vdss
[27] = Clearance in Wistar rat at 1 mg/kg, iv administered as single dose; format: ADME, organism-based; settings: in vivo
[28] = Oral bioavailability in Wistar rat at 3 mg/kg administered as single dose; format: ADME, organism-based; settings: in vivo
[29] = Terminal half life in Wistar rat at 1 mg/kg, iv administered as single dose; format: ADME, organism-based; settings: in vivo, read-out: beta t1/2 (converted)

hERG (KCNH2), sequence (Q12809 whole entry, the tested form may be a part): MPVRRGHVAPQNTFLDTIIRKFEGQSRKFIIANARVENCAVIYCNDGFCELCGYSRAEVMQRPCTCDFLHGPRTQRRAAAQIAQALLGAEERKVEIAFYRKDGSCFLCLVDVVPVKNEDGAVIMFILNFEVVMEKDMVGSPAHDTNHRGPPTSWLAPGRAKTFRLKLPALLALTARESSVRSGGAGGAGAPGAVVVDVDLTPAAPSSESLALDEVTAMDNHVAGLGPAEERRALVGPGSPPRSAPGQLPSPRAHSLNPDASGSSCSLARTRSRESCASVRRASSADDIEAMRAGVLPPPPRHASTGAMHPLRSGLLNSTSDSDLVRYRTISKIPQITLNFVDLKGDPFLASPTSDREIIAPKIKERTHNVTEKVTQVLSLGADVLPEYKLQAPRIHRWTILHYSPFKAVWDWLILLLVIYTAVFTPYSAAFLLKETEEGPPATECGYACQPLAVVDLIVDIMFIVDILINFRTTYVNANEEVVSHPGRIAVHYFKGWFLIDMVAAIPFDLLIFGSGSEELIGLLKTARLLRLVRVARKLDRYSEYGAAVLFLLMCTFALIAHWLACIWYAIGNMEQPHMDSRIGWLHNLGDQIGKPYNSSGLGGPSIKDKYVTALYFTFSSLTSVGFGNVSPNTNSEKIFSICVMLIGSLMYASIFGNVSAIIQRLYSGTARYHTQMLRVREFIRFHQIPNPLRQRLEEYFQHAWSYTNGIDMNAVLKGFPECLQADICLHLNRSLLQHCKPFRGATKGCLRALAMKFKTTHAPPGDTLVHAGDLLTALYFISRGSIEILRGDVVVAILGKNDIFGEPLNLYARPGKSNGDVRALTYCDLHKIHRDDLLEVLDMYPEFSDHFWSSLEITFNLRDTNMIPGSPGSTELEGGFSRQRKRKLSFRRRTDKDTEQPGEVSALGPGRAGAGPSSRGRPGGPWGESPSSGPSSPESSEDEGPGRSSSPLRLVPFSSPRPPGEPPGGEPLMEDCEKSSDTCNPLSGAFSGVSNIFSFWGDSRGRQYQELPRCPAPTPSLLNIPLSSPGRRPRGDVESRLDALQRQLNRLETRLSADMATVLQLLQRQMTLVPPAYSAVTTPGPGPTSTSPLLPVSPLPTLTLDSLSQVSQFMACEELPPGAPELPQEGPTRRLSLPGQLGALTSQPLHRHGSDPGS
Voltage-gated inwardly rectifying potassium channel KCNH2, sequence (Q12809 whole entry): as the sequence (Q12809 whole entry, the tested form may be a part) above
P-gp (ABCB1), sequence (P08183 whole entry): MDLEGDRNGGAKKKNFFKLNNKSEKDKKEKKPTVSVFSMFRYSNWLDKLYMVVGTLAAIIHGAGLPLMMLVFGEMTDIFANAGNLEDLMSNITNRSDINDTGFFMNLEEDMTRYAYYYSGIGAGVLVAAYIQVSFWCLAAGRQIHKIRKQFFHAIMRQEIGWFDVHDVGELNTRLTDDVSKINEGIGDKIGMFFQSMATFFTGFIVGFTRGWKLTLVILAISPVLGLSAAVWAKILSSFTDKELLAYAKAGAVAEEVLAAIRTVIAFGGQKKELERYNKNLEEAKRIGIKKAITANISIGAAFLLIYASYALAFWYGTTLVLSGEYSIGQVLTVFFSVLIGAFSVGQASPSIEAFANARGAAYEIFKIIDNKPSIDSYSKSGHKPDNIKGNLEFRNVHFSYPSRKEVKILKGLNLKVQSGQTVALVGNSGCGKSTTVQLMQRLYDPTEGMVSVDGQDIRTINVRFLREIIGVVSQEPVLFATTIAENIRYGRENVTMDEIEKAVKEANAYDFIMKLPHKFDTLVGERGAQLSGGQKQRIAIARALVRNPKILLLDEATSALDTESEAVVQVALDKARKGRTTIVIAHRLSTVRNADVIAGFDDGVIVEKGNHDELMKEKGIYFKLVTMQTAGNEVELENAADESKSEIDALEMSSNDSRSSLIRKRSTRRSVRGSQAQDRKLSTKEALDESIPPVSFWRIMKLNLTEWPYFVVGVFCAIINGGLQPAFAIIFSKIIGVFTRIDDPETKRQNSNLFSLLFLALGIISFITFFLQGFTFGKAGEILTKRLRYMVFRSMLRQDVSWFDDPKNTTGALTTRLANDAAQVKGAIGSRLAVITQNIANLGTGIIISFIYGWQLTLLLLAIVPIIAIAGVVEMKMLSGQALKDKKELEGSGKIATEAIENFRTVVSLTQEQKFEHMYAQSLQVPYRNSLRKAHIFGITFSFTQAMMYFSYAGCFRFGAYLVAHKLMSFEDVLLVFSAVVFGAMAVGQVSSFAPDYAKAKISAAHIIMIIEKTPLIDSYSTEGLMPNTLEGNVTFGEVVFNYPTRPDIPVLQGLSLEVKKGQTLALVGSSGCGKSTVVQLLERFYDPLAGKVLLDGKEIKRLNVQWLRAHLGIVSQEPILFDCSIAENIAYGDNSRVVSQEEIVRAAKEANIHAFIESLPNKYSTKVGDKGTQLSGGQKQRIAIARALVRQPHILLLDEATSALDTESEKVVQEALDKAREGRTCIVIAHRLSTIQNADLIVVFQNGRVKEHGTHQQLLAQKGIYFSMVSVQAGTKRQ

SMILES: Cc1cc(N2C[C@H]3CC[C@@H](C2)[C@@H]3Nc2nc3n(n2)CCCN3c2ccc(C(F)(F)F)cc2)ncn1
- pIC50 [1]: 7.96

SMILES: Cc1noc(N2C[C@H]3CC[C@@H](C2)[C@@H]3Nc2nc3n(n2)CCCN3c2ccc(F)c(F)c2)n1
- hepatocyte CLint [2]: 1.5 µL/min/1e6 cells
- pIC50 [1]: 7.49
- solubility [3]: 158 µg/mL (≈ 357 µM)

SMILES: Fc1ccc(N2CCCn3nc(N[C@@H]4[C@@H]5CC[C@H]4CN(c4ccnc(C(F)(F)F)c4)C5)nc32)cc1F
- pIC50 [1]: 7.82

SMILES: COc1cc(N2C[C@H]3CC[C@@H](C2)[C@@H]3Nc2nc3n(n2)CCCN3c2ccc(F)c(F)c2)ccn1
- efflux ratio [4]: 1
- hepatocyte CLint [2]: 3.8 µL/min/1e6 cells
- pIC50 [5]: < 5.70
- IC20 [6]: > 1000 nM
- pIC50 [1]: 7.80
- solubility [3]: 11 µg/mL (≈ 23.5 µM)

SMILES: Cc1cc(N2C[C@H]3CC[C@@H](C2)[C@@H]3Nc2nc3n(n2)CCCN3c2ccc(F)c(F)c2)cnn1
- efflux ratio [4]: 3.3
- hepatocyte CLint [2]: 2.3 µL/min/1e6 cells
- pIC50 [1]: 7.64
- solubility [3]: 131 µg/mL (≈ 289 µM)

SMILES: Fc1ccc(N2CCCCn3nc(N[C@@H]4[C@@H]5CC[C@H]4CN(c4ccnc(C(F)(F)F)c4)C5)nc32)cc1F
- pIC50 [1]: 7.47

SMILES: Cc1cc(N2C[C@H]3CC[C@@H](C2)[C@@H]3Nc2nc3n(n2)CCCN3c2ccc(F)c(F)c2)ncn1
- efflux ratio [4]: 3.2
- hepatocyte CLint [2]: 2 µL/min/1e6 cells
- pIC50 [1]: 7.60
- solubility [3]: 161 µg/mL (≈ 356 µM)

SMILES: Cc1cc(N2C[C@H]3CC[C@@H](C2)[C@@H]3Nc2nc3n(n2)CCCC[C@H]3c2ccc(F)c(F)c2F)ncn1
- pIC50 [7]: 8.40
- half-life [8]: 3.4 h
- efflux ratio [4]: 2.4
- logD [9]: 3.8
- hepatocyte CLint [2]: 4.5 µL/min/1e6 cells
- Activity [10]: Non-Toxic
- fraction unbound [11]: 0.014
- pIC50 [12]: 8.70
- pIC50 [5]: 5.85
- IC20 [6]: 300 nM
- pIC50 [13]: 8.70
- clearance [14]: 5 mL/min/kg
- fraction unbound [15]: 0.014
- pIC50 [16]: 8.60
- hepatocyte CLint [17]: 1.4 µL/min/1e6 cells
- fraction unbound [18]: 0.054
- pIC50 [19]: 8.40
- Drug metabolism [20]: Not Active
- Vd [21]: 1.1 L/kg
- pIC50 [22]: 8.40
- efflux ratio [23]: 3.3
- bioavailability [24]: 53%
- hepatocyte CLint [25]: 43 µL/min/1e6 cells

SMILES: Cc1cc(N2C[C@H]3CC[C@@H](C2)[C@@H]3Nc2nc3n(n2)CCCN3c2cc(F)cc(F)c2)ncn1
- Vd [26]: 1.1 L/kg
- logD [9]: 3.5
- hepatocyte CLint [2]: 2.4 µL/min/1e6 cells
- clearance [27]: 3.5 mL/min/kg
- Activity [10]: Non-Toxic
- fraction unbound [11]: 0.014
- pIC50 [12]: 8.52
- fraction unbound [15]: 0.006
- pIC50 [16]: 8.52
- hepatocyte CLint [17]: 0.6 µL/min/1e6 cells
- fraction unbound [18]: 0.01
- pIC50 [19]: 8.30
- Drug metabolism [20]: Not Active
- solubility [3]: 6 µg/mL (≈ 13.3 µM)
- bioavailability [28]: 82%
- half-life [29]: 4.6 h
- hepatocyte CLint [25]: 6.4 µL/min/1e6 cells

SMILES: Cc1cc(N2C[C@H]3CC[C@@H](C2)[C@@H]3Nc2nc3n(n2)CCN3c2ccc(C(F)(F)F)cc2)ncn1
- pIC50 [1]: 7.59

SMILES: Fc1ccc(C2CCn3nc(N[C@@H]4[C@@H]5CC[C@H]4CN(c4ccnc(C(F)(F)F)c4)C5)nc32)cc1F (some centres undefined)
- pIC50 [1]: 7.06

SMILES: Cc1cc(N2C[C@H]3CC[C@@H](C2)[C@@H]3Nc2nc3n(n2)CCCCN3c2ccc(C(F)(F)F)cc2)ncn1
- pIC50 [1]: 7.72

SMILES: Cc1nnc(N2C[C@H]3CC[C@@H](C2)[C@@H]3Nc2nc3n(n2)CCCCC3c2ccc(F)c(F)c2F)o1 (mixture of isomers)
- pIC50 [1]: 7.31

SMILES: FC(F)(F)c1cccc(C2CCCCn3nc(N[C@@H]4[C@@H]5CC[C@H]4CN(c4cnnc(Cl)c4)C5)nc32)c1 (mixture of isomers)
- pIC50 [1]: 7.51

SMILES: Fc1ccc(C2CCCn3nc(N[C@@H]4[C@@H]5CC[C@H]4CN(c4cc(Cl)ncn4)C5)nc32)c(F)c1F (mixture of isomers)
- pIC50 [1]: 7.52

SMILES: COc1cc(N2C[C@H]3CC[C@@H](C2)[C@@H]3Nc2nc3n(n2)CCCCC3c2ccc(F)c(F)c2F)ccn1 (mixture of isomers)
- efflux ratio [4]: 1.2
- hepatocyte CLint [2]: 6 µL/min/1e6 cells
- pIC50 [1]: 7.85
- solubility [3]: 3.2 µg/mL (≈ 6.42 µM)

SMILES: Fc1ccc(C2CCn3nc(N[C@@H]4[C@@H]5CC[C@H]4CN(c4ccnc(C(F)(F)F)c4)C5)nc32)c(F)c1F (mixture of isomers)
- pIC50 [1]: 6.90

SMILES: Fc1ccc(C2CCCCn3nc(N[C@@H]4[C@@H]5CC[C@H]4CN(c4cc(Cl)ncn4)C5)nc32)c(F)c1F (mixture of isomers)
- efflux ratio [4]: 1.5
- hepatocyte CLint [2]: 2.6 µL/min/1e6 cells
- pIC50 [1]: 7.85
- solubility [3]: < 0.3 µg/mL

SMILES: COc1cc(N2C[C@H]3CC[C@@H](C2)[C@@H]3Nc2nc3n(n2)CCCCC3c2cccc(C(F)(F)F)c2)cnn1 (mixture of isomers)
- pIC50 [1]: 7.40

SMILES: Cc1cc(N2C[C@H]3CC[C@@H](C2)[C@@H]3Nc2nc3n(n2)CCCCC3c2ccc(F)c(F)c2F)ncn1 (mixture of isomers)
- efflux ratio [4]: 2.1
- hepatocyte CLint [2]: 3.1 µL/min/1e6 cells
- pIC50 [1]: 7.82
- solubility [3]: 0.7 µg/mL (≈ 1.45 µM)

SMILES: Fc1ccc(C2CCCCn3nc(N[C@@H]4[C@@H]5CC[C@H]4CN(c4ccnc(C(F)(F)F)c4)C5)nc32)c(F)c1F (mixture of isomers)
- pIC50 [1]: 7.51

SMILES: Cc1nnc(N2C[C@H]3CC[C@@H](C2)[C@@H]3Nc2nc3n(n2)CCCC3c2ccc(F)c(F)c2F)o1 (mixture of isomers)
- pIC50 [1]: 6.63

SMILES: Cc1cc(N2C[C@H]3CC[C@@H](C2)[C@@H]3Nc2nc3n(n2)CCCCC3c2cccc(C(F)(F)F)c2)ncn1 (mixture of isomers)
- efflux ratio [4]: 2.2
- hepatocyte CLint [2]: 14 µL/min/1e6 cells
- pIC50 [1]: 7.72
- solubility [3]: 34 µg/mL (≈ 68.3 µM)

SMILES: Cc1cc(N2C[C@H]3CC[C@@H](C2)[C@@H]3Nc2nc3n(n2)CCCCC3c2ccc(F)c(F)c2F)cnn1 (mixture of isomers)
- efflux ratio [4]: 20
- hepatocyte CLint [2]: 2.1 µL/min/1e6 cells
- pIC50 [1]: 7.52
- solubility [3]: 188 µg/mL (≈ 389 µM)

SMILES: Cc1cc(N2C[C@H]3CC[C@@H](C2)[C@@H]3Nc2nc3n(n2)CCCC3c2ccc(C(F)(F)F)cc2)ncn1 (mixture of isomers)
- pIC50 [1]: 7.60

SMILES: Cc1cc(N2C[C@H]3CC[C@@H](C2)[C@@H]3Nc2nc3n(n2)CCCCC3c2ccc(F)c(F)c2F)on1 (mixture of isomers)
- pIC50 [1]: 7.41

SMILES: Cc1cc(N2C[C@H]3CC[C@@H](C2)[C@@H]3Nc2nc3n(n2)CCCCC3c2ccc(F)c(F)c2)ncn1 (mixture of isomers)
- hepatocyte CLint [2]: 6.5 µL/min/1e6 cells
- pIC50 [1]: 7.64

SMILES: Fc1ccc(C2CCCCn3nc(N[C@@H]4[C@@H]5CC[C@H]4CN(c4cnnc(Cl)c4)C5)nc32)c(F)c1F (mixture of isomers)
- efflux ratio [4]: 4.3
- hepatocyte CLint [2]: 3.3 µL/min/1e6 cells
- pIC50 [1]: 7.85
- solubility [3]: 14 µg/mL (≈ 27.8 µM)

SMILES: COc1cc(N2C[C@H]3CC[C@@H](C2)[C@@H]3Nc2nc3n(n2)CCCCC3c2ccc(F)c(F)c2F)ncn1 (mixture of isomers)
- pIC50 [5]: 6.26
- IC20 [6]: 200 nM
- pIC50 [1]: 7.54

SMILES: Cc1noc(N2C[C@H]3CC[C@@H](C2)[C@@H]3Nc2nc3n(n2)CCCCC3c2ccc(F)c(F)c2F)n1 (mixture of isomers)
- pIC50 [1]: 7.36

SMILES: Fc1ccc(C2CCCn3nc(N[C@@H]4[C@@H]5CC[C@H]4CN(c4ccnc(C(F)(F)F)c4)C5)nc32)c(F)c1F (mixture of isomers)
- pIC50 [1]: 7.36

SMILES: Cc1cc(N2C[C@H]3CC[C@@H](C2)[C@@H]3Nc2nc3n(n2)CCCCC3c2ccc(C(F)(F)F)cc2)ncn1 (mixture of isomers)
- pIC50 [1]: 7.85
